In ChEMBL document CHEMBL5365482, “Rational Design of Sulfonyl-γ-AApeptides as Highly Potent HIV-1 Fusion Inhibitors with Broad-Spectrum Activity” (J Med Chem, 2023):

What was measured:
[1] = tested on: Human immunodeficiency virus 1; experiment: Antiviral activity against HIV1 IIIB infected in human MT2 cells assessed as inhibition of viral growth incubated for 30 mins by ELISA assay; type: functional, organism-based; conditions: Human immunodeficiency virus 1, IIIB, MT2, 0.5 h
[2] = Cytotoxicity against human MT2 cells assessed as inhibition of cell growth measured after 3 days by CCK8 assay; type: toxicity, cell-based; conditions: time 3 day
[3] = Selectivity index, ratio of CC50 for human MT2 cells to IC50 for HIV1 IIIB infected in human MT2 cells; type: toxicity, cell-based; conditions: read-out: Ratio CC50/IC50

Row | SMILES | IC50 [1] [µM] | CC50 at 72 h [2] [µM] | selectivity ratio [3]
1 | CC[C@@H](C)[C@@H](CN(CC(=O)N[C@@H](CCC(=O)O)CN(CC(=O)N[C@@H](CC(C)C)CN(CC(N)=O)S(=O)(=O)CC(C)C)S(=O)(=O)c1ccc(C(=O)O)cc1)S(=O)(=O)CC(C)C)NC(=O)CN(C[C@H](CCCCN)NC(=O)CN(C[C@H](Cc1ccc(O)cc1)NC(=O)CN(C[C@H](CCC(=O)O)NC(=O)CN(C[C@@H](NC(=O)CN(C[C@H](CCCCN)NC(=O)CN(C[C@H](Cc1c[nH]c2ccccc12)NC(=O)CN(C[C@H](CCC(=O)O)NC(=O)CN(C[C@H](Cc1c[nH]c2ccccc12)NC(=O)CN(C[C@H](CCSC)NC(C)=O)S(=O)(=O)CC(C)C)S(=O)(=O)CC(C)C)S(=O)(=O)c1ccc(C(=O)O)cc1)S(=O)(=O)CC(C)C)S(=O)(=O)CCN)[C@H](C)CC)S(=O)(=O)CC(C)C)S(C)(=O)=O)S(=O)(=O)CC(C)C)S(=O)(=O)CCN | > 40 | > 40 | –
2 | CC[C@@H](C)[C@@H](CN(CC(=O)N[C@@H](CCC(=O)O)CN(CC(=O)N[C@@H](CC(C)C)CN(CC(N)=O)S(=O)(=O)CC(C)C)S(C)(=O)=O)S(=O)(=O)CC(C)C)NC(=O)CN(C[C@H](CCCCN)NC(=O)CN(C[C@H](Cc1ccc(O)cc1)NC(=O)CN(C[C@H](CCC(=O)O)NC(=O)CN(C[C@@H](NC(=O)CN(C[C@H](CCCCN)NC(=O)CN(C[C@H](Cc1c[nH]c2ccccc12)NC(=O)CN(C[C@H](CCC(=O)O)NC(=O)CN(C[C@H](Cc1c[nH]c2ccccc12)NC(=O)CN(C[C@H](CCSC)NC(C)=O)S(=O)(=O)CC(C)C)S(=O)(=O)CC(C)C)S(=O)(=O)c1ccc(C(=O)O)cc1)S(=O)(=O)CC(C)C)S(=O)(=O)CCN)[C@H](C)CC)S(=O)(=O)CC(C)C)S(=O)(=O)c1ccc(C(=O)O)cc1)S(=O)(=O)CC(C)C)S(=O)(=O)CCN | > 40 | > 40 | –
3 | CC[C@@H](C)[C@@H](CN(CC(=O)N[C@@H](CCC(=O)O)CN(CC(=O)N[C@H](CO)CN(CC(=O)N[C@@H](CCCCN)CN(CC(=O)N[C@H](CN(CC(=O)N[C@@H](CCC(=O)O)CN(CC(=O)N[C@@H](CC(C)C)CN(CC(N)=O)S(=O)(=O)CC(C)C)S(=O)(=O)c1ccc(C(=O)O)cc1)S(=O)(=O)CC(C)C)[C@H](C)CC)S(=O)(=O)CCN)S(=O)(=O)CC(C)C)S(=O)(=O)c1ccc(C(=O)O)cc1)S(=O)(=O)CC(C)C)NC(=O)CN(C[C@@H](CCCCN)NC(=O)CN(C[C@H](Cc1c[nH]c2ccccc12)NC(=O)CN(C[C@H](CCC(=O)O)NC(=O)CN(C[C@H](Cc1c[nH]c2ccccc12)NC(=O)CN(C[C@H](CCSC)NC(C)=O)S(=O)(=O)CC(C)C)S(=O)(=O)CC(C)C)S(=O)(=O)c1ccc(C(=O)O)cc1)S(=O)(=O)CC(C)C)S(=O)(=O)CCN | > 100 | > 100 | –
4 | CC[C@@H](C)[C@@H](CN(CC(=O)N[C@@H](CCC(=O)O)CN(CC(=O)N[C@@H](CC(C)C)CN(CC(N)=O)S(=O)(=O)CC(C)C)S(=O)(=O)c1ccc(C(=O)O)cc1)S(=O)(=O)CC(C)C)NC(=O)CN(C[C@H](CCCCN)NC(=O)CN(C[C@H](Cc1ccc(O)cc1)NC(=O)CN(C[C@H](CCC(=O)O)NC(=O)CN(C[C@@H](NC(=O)CN(C[C@H](CCCCN)NC(=O)CN(C[C@H](Cc1c[nH]c2ccccc12)NC(=O)CN(C[C@H](CCC(=O)O)NC(=O)CN(C[C@H](Cc1c[nH]c2ccccc12)NC(C)=O)S(=O)(=O)CC(C)C)S(=O)(=O)c1ccc(C(=O)O)cc1)S(=O)(=O)CC(C)C)S(=O)(=O)CCN)[C@H](C)CC)S(=O)(=O)CC(C)C)S(=O)(=O)c1ccc(C(=O)O)cc1)S(=O)(=O)CC(C)C)S(=O)(=O)CCN | > 100 | > 100 | –
5 | CC[C@@H](C)[C@@H](CN(CC(=O)N[C@@H](CCC(=O)O)CN(CC(=O)N[C@@H](CC(C)C)CN(CC(=O)N[C@@H](CCCCN)CN(CC(=O)N[C@@H](CC(C)C)CN(CC(N)=O)S(=O)(=O)CC(C)C)S(=O)(=O)CCN)S(=O)(=O)CC(C)C)S(=O)(=O)c1ccc(C(=O)O)cc1)S(=O)(=O)CC(C)C)NC(=O)CN(C[C@H](CCCCN)NC(=O)CN(C[C@H](Cc1ccc(O)cc1)NC(=O)CN(C[C@H](CCC(=O)O)NC(=O)CN(C[C@@H](NC(=O)CN(C[C@H](CCCCN)NC(=O)CN(C[C@H](Cc1c[nH]c2ccccc12)NC(=O)CN(C[C@H](CCC(=O)O)NC(=O)CN(C[C@H](Cc1c[nH]c2ccccc12)NC(=O)CN(C[C@H](CCSC)NC(C)=O)S(=O)(=O)c1ccc(OC)cc1)S(=O)(=O)CC(C)C)S(=O)(=O)c1ccc(C(=O)O)cc1)S(=O)(=O)CC(C)C)S(=O)(=O)CCN)[C@H](C)CC)S(=O)(=O)CC(C)C)S(=O)(=O)c1ccc(C(=O)O)cc1)S(=O)(=O)CC(C)C)S(=O)(=O)CCN | 15.7 | > 100 | > 6.3
6 | CC[C@@H](C)[C@@H](CN(CC(=O)N[C@@H](CCC(=O)O)CN(CC(=O)N[C@@H](CC(C)C)CN(CC(N)=O)S(=O)(=O)CC(C)C)S(=O)(=O)c1ccc(C(=O)O)cc1)S(=O)(=O)CC(C)C)NC(=O)CN(C[C@H](CCCCN)NC(=O)CN(C[C@H](Cc1ccc(O)cc1)NC(=O)CN(C[C@H](CCC(=O)O)NC(=O)CN(C[C@@H](NC(=O)CN(C[C@H](CCCCN)NC(=O)CN(C[C@H](Cc1c[nH]c2ccccc12)NC(=O)CN(C[C@H](CCC(=O)O)NC(=O)CN(C[C@H](Cc1c[nH]c2ccccc12)NC(=O)CN(C[C@H](CCSC)NC(C)=O)S(C)(=O)=O)S(=O)(=O)CC(C)C)S(=O)(=O)c1ccc(C(=O)O)cc1)S(=O)(=O)CC(C)C)S(=O)(=O)CCN)[C@H](C)CC)S(=O)(=O)CC(C)C)S(=O)(=O)c1ccc(C(=O)O)cc1)S(=O)(=O)CC(C)C)S(=O)(=O)CCN | 38.9 | > 100 | > 2.5
7 | CC[C@@H](C)[C@@H](CN(CC(=O)N[C@@H](CCC(=O)O)CN(CC(=O)N[C@@H](Cc1ccc(O)cc1)CN(CC(=O)N[C@@H](CCCCN)CN(CC(=O)N[C@H](CN(CC(=O)N[C@@H](CCC(=O)O)CN(CC(=O)N[C@@H](CC(C)C)CN(CC(N)=O)S(=O)(=O)CC(C)C)S(=O)(=O)c1ccc(C(=O)O)cc1)S(=O)(=O)CC(C)C)[C@H](C)CC)S(=O)(=O)CCN)S(=O)(=O)CC(C)C)S(=O)(=O)c1ccc(C(=O)O)cc1)S(=O)(=O)CC(C)C)NC(=O)CN(C[C@H](CCCCN)NC(=O)CN(C[C@@H](Cc1c[nH]c2ccccc12)NC(=O)CN(C[C@H](CCC(=O)O)NC(=O)CN(C[C@H](Cc1c[nH]c2ccccc12)NC(=O)CN(C[C@H](CCSC)NC(C)=O)S(=O)(=O)CC(C)C)S(=O)(=O)CC(C)C)S(C)(=O)=O)S(=O)(=O)CC(C)C)S(=O)(=O)CCN | > 40 | > 40 | –
8 | CC[C@@H](C)[C@@H](CN(CC(=O)N[C@@H](CCC(=O)O)CN(CC(=O)N[C@@H](CC(C)C)CN(CC(=O)N[C@@H](CCCCN)CN(CC(=O)N[C@@H](C)CN(CC(=O)N[C@@H](CCC(=O)O)CN(CC(=O)N[C@@H](CCCCN)CN(CC(=O)N[C@@H](CCCCN)CN(CC(=O)N[C@@H](CCC(=O)O)CN(CC(=O)N[C@@H](CCC(=O)O)CN(CC(=O)N[C@@H](CC(C)C)CN(CC(=O)N[C@@H](CCCCN)CN(CC(N)=O)S(=O)(=O)CCN)S(=O)(=O)CC(C)C)S(=O)(=O)c1ccc(C(=O)O)cc1)S(=O)(=O)c1ccc(C(=O)O)cc1)S(=O)(=O)CCN)S(=O)(=O)CCN)S(=O)(=O)c1ccc(C(=O)O)cc1)S(C)(=O)=O)S(=O)(=O)CCN)S(=O)(=O)CC(C)C)S(=O)(=O)c1ccc(C(=O)O)cc1)S(=O)(=O)CC(C)C)NC(C)=O | > 40 | > 40 | –
9 | CC[C@H](C)[C@H](NC(=O)[C@H](CC(C)C)NC(=O)[C@H](CCC(=O)O)NC(=O)[C@H](CCC(=O)O)NC(=O)[C@@H](NC(=O)[C@H](CCCCN)NC(=O)[C@H](CCCCN)NC(=O)[C@@H](NC(=O)[C@H](Cc1ccc(O)cc1)NC(=O)[C@H](CCC(=O)O)NC(=O)[C@H](CCC(=O)O)NC(=O)[C@@H](NC(=O)[C@H](CCCCN)NC(=O)[C@H](CCCCN)NC(=O)[C@H](CC(=O)O)NC(=O)[C@H](Cc1cc2ccccc2[nH]1)NC(=O)[C@H](CCC(=O)O)NC(=O)[C@H](CCC(=O)O)NC(=O)[C@H](Cc1cc2ccccc2[nH]1)NC(=O)[C@@H](NC(=O)[C@H](CCSC)NC(C)=O)[C@@H](C)O)[C@@H](C)CC)[C@H](C)O)[C@@H](C)CC)C(=O)N[C@@H](CCCCN)C(=O)N[C@@H](CCCCN)C(=O)N[C@@H](CO)C(N)=O | 0.001 | – | –
10 | CC[C@@H](C)[C@@H](CN(CC(=O)N[C@@H](CCC(=O)O)CN(CC(=O)N[C@@H](CC(C)C)CN(CC(N)=O)S(=O)(=O)CC(C)C)S(C)(=O)=O)S(=O)(=O)CC(C)C)NC(=O)CN(C[C@H](CCCCN)NC(=O)CN(C[C@H](Cc1ccc(O)cc1)NC(=O)CN(C[C@H](CCC(=O)O)NC(=O)CN(C[C@@H](NC(=O)CN(C[C@H](CCCCN)NC(=O)CN(C[C@H](Cc1c[nH]c2ccccc12)NC(=O)CN(C[C@@H](CCC(=O)O)NC(=O)CN(C[C@H](Cc1c[nH]c2ccccc12)NC(=O)CN(C[C@H](CCSC)NC(C)=O)S(=O)(=O)CC(C)C)S(=O)(=O)CC(C)C)S(C)(=O)=O)S(=O)(=O)CC(C)C)S(=O)(=O)CCN)[C@H](C)CC)S(=O)(=O)CC(C)C)S(C)(=O)=O)S(=O)(=O)CC(C)C)S(=O)(=O)CCN | > 100 | > 100 | –
11 | CC[C@@H](C)[C@@H](CN(CC(=O)N[C@@H](CCC(=O)O)CN(CC(=O)N[C@@H](CC(C)C)CN(CC(N)=O)S(=O)(=O)CC(C)C)S(=O)(=O)c1ccc(C(=O)O)cc1)S(=O)(=O)CC(C)C)NC(=O)CN(C[C@H](CCCCN)NC(=O)CN(C[C@H](Cc1ccc(O)cc1)NC(=O)CN(C[C@H](CCC(=O)O)NC(=O)CN(C[C@@H](NC(=O)CN(C[C@H](CCCCN)NC(=O)CN(C[C@H](Cc1c[nH]c2ccccc12)NC(=O)CN(C[C@H](CCC(=O)O)NC(=O)CN(C[C@H](Cc1c[nH]c2ccccc12)NC(=O)CN(C[C@H](CCSC)NC(C)=O)S(=O)(=O)CC(C)C)S(=O)(=O)CC(C)C)S(=O)(=O)c1ccc(C(=O)O)cc1)S(=O)(=O)CC(C)C)S(=O)(=O)CCN)[C@H](C)CC)S(=O)(=O)CC(C)C)S(=O)(=O)c1ccc(C(=O)O)cc1)S(C)(=O)=O)S(=O)(=O)CCN | > 100 | > 100 | –
